Measured values taken from PMC11819893, “Isolation and Bioassay of Linear Veraguamides from a Marine Cyanobacterium (Okeania sp.)” (Molecules, 2025).
Numbered stars: 1 amine (or outer) side, 2 acyl side, 3 side chain; on linkers, the order of the positions; unused ones are H or OH. Square brackets hold non-standard residues; d marks the D form. Peptide text beside a SMILES is read from it. * marks the point of attachment. NMeI = CC[CH](C)[CH](NC)C(=O)O; X2 = CCC(C)C(O[*:1])C(=O)[*:2]; NMeV = CN[CH](C(=O)O)C(C)C; X1 = C#CCCCC(O)C(C)C(=O)*

What was measured:
[1] = tested on: MDA-MB-231 cells; assay: MTT cytotoxicity assay in MDA-MB-231 (TNBC) cells; assay type: cell-based, human; settings: for cytotoxicity / effect on viability in words: TNBC (MDA-MB-231) cells, MTT
Experimental: (§1) The human triple-negative breast cancer cell line MDA-MB-231 was obtained from ATCC and was maintained in DMEM:F-12 (1:1) (Life Technologies, Carlsbad, CA, USA), 10% Fetal Bovine Serum (Atlanta Biologicals, Atlanta, GA, USA), and 1% Penicillin/Streptomycin (Sigma, St. Louis, MO, USA). The estrogen-positive MCF-7 cell line was also obtained from ATCC and was maintained in 1640 RPMI media (Life technologies), 10% FBS, and 1% Penicillin/Streptomycin. HEK-293 cells were also obtained from ATCC and maintained in Dulbecco’s Modification of Eagle’s Medium (DMEM), 10% Fetal Bovine Serum (FBS), and 1% Penicillin/Streptomycin (Pen/Strep).
(§2) Two rounds of toxicity experimentation were completed. First, MDA-MB-231 and MCF-7 cells were plated at a density of 5 × 10^3 cells per well in a 96-well plate. Cells were allowed to attach overnight. The cells were treated with depsipeptides or vehicle for 72 h with 5% FBS stimulation. DMSO was used as a vehicle control. After treatment, 10 μ L MTT (Sigma) was added to each well (0.5 mg/mL final concentration), and the plates were incubated for 3 h (5% CO2 and 37 °C). The medium was removed and the MTT-formazan crystals were dissolved with 100 μ L DMSO per well. The absorbance was measured at 570 nm with a VICTOR^3 1420 multilabel counter (Perkin Elmer, Springfield, IL, USA). Three wells were analyzed for each condition, and wells containing medium-MTT only (no cells) and medium-MTT (DMSO + 5% FBS) were used as controls. Results were normalized to the DMSO + 5% FBS group.

[2] = tested on: MCF-7 cells; assay: MTT cytotoxicity assay in MCF-7 (estrogen positive) cells; assay type: cell-based, human; settings: ER-positive MCF-7 cells, 72 h, listed as Veraguamide O
Experimental: as §1
as §2, with “The medium was removed and the MTT-formazan crystals were dissolved with 100 μ L DMSO per well.” left out, “Results were normalized to the DMSO + 5% FBS group.” left out

## C#CCCCC(O)C(C)C(=O)NC(C(=O)N(C)C(C(=O)OC(C(=O)N1CCCC1C(=O)N(C)C(C(=O)O)C(C)CC)C(C)CC)C(C)C)C(C)CC (stereo not drawn) [Veraguamide O (1)] (X1-I[NMeV][X2]P[NMeI]-OH; configuration not given here)
[1]; MDA-MB-231 (TNBC), 10 μM, microscopy
  cell death observed microscopically: appeared to induce cell death
[1]; MDA-MB-231, MTT, 72 h, 0.14 µM, % of DMSO + 5% FBS control
  viability: 86%
[1]; MDA-MB-231 compared to MCF-7, MTT
  selectivity for TNBC over estrogen-positive cells, in words: selective inhibitory effects against TNBC (MDA-MB-231) cells compared to estrogen-positive (MCF-7) breast cancer cells
[1]; 72 h
  cytotoxicity / effect on viability in words: decreased viability in MDA-MB-231 cells in a concentration-dependent manner
[1]; 72 h, listed as veraguamide O
  cytotoxicity / effect on viability in words: similar, albeit minor, levels of toxicity
[2]
  cytotoxicity / effect on viability in words: no cytotoxicity
